# Data: patent US8846903B2, “Acyl-urea derivatives and uses thereof” (Yissum Research Development Company of the Hebrew …, priority 2007, dated 2014)
# Several values for one entry are separate records, joined by “and”; a condition that tells them apart may be missing. Equal entries are not always repeated.
# Assays:
# rats [1] = assay: Maximal electroshock seizure test (MES) in rats; type: in vivo; settings: for ED50: Rattus norvegicus; for Fraction of rats which responded to the treatment: MES
# Description: Briefly, Maximal Electroshock Seizure (MES) assay measures drug capacity to prevent seizure spread and is thus considered to model generalized tonic-clonic seizures. […] The current was delivered to the subjects by means of corneal electrodes to produce tonic hind limb extension. Animals not displaying tonic hind limb extension were considered affected positively by the tested compound.
# rats [2] = assay: Subcutaneous metrazol seizure threshold test (scMet) in rats; type: in vivo; settings: for ED50: Rattus norvegicus, po; for ED50 / ED50 scMet in Rats: rats, scMet model, oral administration (stated for Compound 1); for Fraction of rats which responded to the treatment: scMet
# Experimental: Subcutaneous Metrazole Seizure Threshold Test (scMet) assay measures the ability of an agent to elevate seizure threshold and is considered to model generalized absence seizures. The assay was performed by subcutaneous injection of 85 mg/kg of the convulsant agent metrazole that induces clonic seizures in at least 97% of all animal models (rats and mice).
# mice [3] = assay: Psychomotor seizure (6 Hz, 32 mA) assay in mice; type: in vivo; settings: Mus musculus, ip, intraperitoneal
# Experimental: In a third model, the compounds were tested for their ability to block 6 Hz (32 mA) seizures following intraperitoneal administration thereof to male mice. This test is aimed at identifying new drug candidates for the treatment of therapy-resistant partial seizures.
# (§1) Briefly, psychomotor seizure (6-Hz) assay measures the resistance of a subject to induced psychomotor seizures. The assay was conducted in mice which were pretreated with the test compound. At varying times after treatment, individual subjects were challenged with sufficient current of 32 mA at 6 Hz for 3 seconds, or 44 mA at 6 Hz for 3 seconds, delivered through corneal electrodes to elicit a psychomotor seizure. Animals which were not affected by the current were considered affected positively by the tested compound, thus compounds which were found active in this test are considered promising novel drug candidates for the treatment of therapy-resistant seizures.
# mice [4] = assay: Psychomotor seizure (6 Hz, 44 mA) assay in mice; type: in vivo; settings: Mus musculus
# Experimental: as §1
# rats [5] = assay: Hippocampal kindling screen in rats; type: in vivo; settings: for ED50: Rattus norvegicus, ip
# Experimental: In a fifth model, the hippocampal kindling assay was used to identify new drug candidates effective for the treatment of difficult-to-control seizure types and complex partial seizures, as well as compounds that may be effective as mood stabilizer for treating bipolar disorder, and was conducted according to the protocol described therein.
# Briefly, this test was conducted by using a bipolar stimulating electrode which was implanted in the hippocampus of rats, and the rats were kindled according to a described method. One week after implantation of the electrodes, the rats were stimulated with supra-threshold trains of 200 μA and 50 Hz for 10 seconds every 30 minutes for 6 hours on alternate days until the animals were fully kindled. […] The behavioral seizures were scored according to the following criteria (“seizure score”): stage 1—mouth and facial clonus; stage 2—stage 1 plus head nodding; stage 3—stage 2 plus forelimb clonus; stage 4—stage 3 plus rearing; and stage 5—stage 4 plus repeated rearing and falling.
# For these studies, each of the compounds was evaluated for its ability to block the kindled motor seizure (seizure scores 4 and 5) and limbic behavioral seizures (seizure score between 1 and 3). Additionally the new drug candidate was evaluated for their ability to reduce after discharge duration. The term “after-discharge-duration” is the duration (measured in seconds) of the stages defined above, which are elicited by the electrical currents delivered to the rats.
# At least one week after the fully kindled state was reached, a dose of the test compound was administered intraperitoneally and its effect on behavioral seizure score and after-discharge-duration following 200 μA stimulation was assessed at various time intervals before drug administration and after drug administration. Animals not displaying stage 4 or 5 were considered affected positively from seizure generalization.
# mice [6] = settings: tested by Spielman and co-workers; cited from earlier work
# rats [7] = settings: results disclosed in the art; cited from earlier work
# mice [8] = settings: from [31]; cited from earlier work
# mice [9] = settings: from [31]; cited from earlier work; remark: listed apart in the source
# in vivo = settings: rat, po
# Experimental: (§2) The neurotoxicity of the compounds of the present embodiments was tested using rats which were treated by oral administration, and evaluated according to the “gait and stance” test, which assesses minimal neurotoxicity. […] The median neurological toxic dose (TD50) was used for quantization of neurotoxicity.
# rats [10] = assay: Neurotoxicity, gait and stance test in rats (TD50); settings: oral administration, median neurological toxic dose
# Experimental: as §2
# rats [11] = settings: results disclosed in the art; cited from earlier work; remark: listed apart in the source
# rats [12] = settings: oral administration, literature values; cited from earlier work
# mice [13] = assay: Bicuculline (BIC) clonic seizure assay in mice; type: in vivo; settings: Mus musculus, sc, BIC 2.7 mg/kg s.c., read-out: Bicucullin ED50
# mice [14] = assay: animal or person; type: in vivo; settings: Mus musculus, sc, read-out: Picrotoxin ED50
# Sprague Dawley rats = assay: Acute toxicity (acute motor impairment) after i.p. administration to rats; type: in vivo
# Experimental: Acute toxicity was determined by recording acute motor impairment after three doses of 30, 100 and 300 mg/kg of the tested compounds. The compounds were administered by the intraperitoneal (i.p.) route to three groups of 4 Sprague Dawley rats. […]
# mice [15] = settings: reported by Spielman et al. [19]; cited from earlier work
# mice [16] = settings: reported by Spielman et al. [19]; cited from earlier work; remark: listed apart in the source
Compound,"ED50 (rats [1]; rats, MES model) [mg/kg]",ED50 (rats [2]) [mg/kg],ED50 (mice [3]) [mg/kg],ED50 (mice [4]) [mg/kg],anti-convulsant activity (mice [6]),melting point [°C],TD50 (in vivo) [mg/kg],also measured
"CCCC(CCC)C(=O)NC(N)=O [Compound 6, 1-(2-propyl-pentanoyl)-urea]",53.8,76.8,57.8,105,lack beneficial activity,–,–,"ED50 (rats [5]; rats, intraperitoneal): > 180 mg/kg"
"CCCCC(CC)C(=O)NC(N)=O (centres unmarked) [Compound 5, 1-(2-ethyl-hexanoyl)-urea]",–,–,–,–,lack beneficial activity,158 to 159,–,–
"CCCC(CCC)C(=O)O [Valproic acid, valproic acid]",–,–,–,–,–,–,–,ED50 rat-scMet model (rats [7]): 646 mg/kg; Bicucullin ED50 (mice [8]): 589 mg/kg; Picrotoxin ED50 (mice [9]): 270 mg/kg
"CCC[C@H](C(=O)NC(N)=O)C(C)C (stereo in doubt) [Compound 1R, R-1-(2-isopropylpentanoyl)urea]",–,–,43,56,–,–,–,–
"CCCC(C(=O)NC(N)=O)C(C)C (racemic) [Compound 1, 1-(2-isopropylpentanoyl)urea]",16,45,42.2,71,–,–,95,"ED50 scMet in Rats (rats [2]): 45.4 mg/kg; ED50 (rats [5]; rats, intraperitoneal): > 94 mg/kg; TD50 in Rats (rats [10]): 94.5 mg/kg"
"CC1(C)C(C(=O)NC(N)=O)C1(C)C [Reference Compound 1, N-(2,2,3,3-tetramethylcyclopropanecarbonyl)urea]",–,–,–,–,–,–,–,ED50 rat-MES model (rats [11]): 29 mg/kg; ED50 rat-scMet model (rats [7]): 92 mg/kg
"CC(C)C(C(=O)NC(N)=O)C(C)C [Compound 2, 1-(2-isopropyl-3-methylbutanoyl)urea]",33,16,43.3,48.6,–,199 to 200,–,"Fraction of rats which responded to the treatment (rats [1]; dose 15 mg/kg): 1/8; Fraction of rats which responded to the treatment (rats [1]; dose 30 mg/kg): 5/8; Fraction of rats which responded to the treatment (rats [1]; dose 60 mg/kg): 5/8; Fraction of rats which responded to the treatment (rats [1]; dose 120 mg/kg): 8/8; ED50 MES in Rats (rats [1]; rats, MES model): 32.7 mg/kg; ED50 scMet in Rats (rats [2]): 15.7 mg/kg; Fraction of rats which responded to the treatment (rats [2]; dose 6 mg/kg): 1/8; Fraction of rats which responded to the treatment (rats [2]; dose 12 mg/kg): 2/8; Fraction of rats which responded to the treatment (rats [2]; dose 25 mg/kg): 6/8; Fraction of rats which responded to the treatment (rats [2]; dose 50 mg/kg): 8/8; ED50 (rats [5]; rats, intraperitoneal): > 200 mg/kg"
"CC1(C)C(C(=O)NCC(N)=O)C1(C)C [Reference Compound 2, N-(2,2,3,3-tetramethylcyclopropylcarbonyl)glycinamide]",–,–,–,–,–,–,–,ED50 rat-MES model (rats [11]): 73 mg/kg; ED50 rat-scMet model (rats [7]): higher than 250 mg/kg; TD50 (rats [12]): above 500 mg/kg
"CCC[C@@H](C(=O)NC(N)=O)C(C)C [Compound 1S, S-1-(2-isopropylpentanoyl)urea]",–,–,46,75,–,–,–,–
"CC(C)CC(=O)NC(N)=O [Compound 7, 3-methylbutanoylurea]",> 250,83,–,–,lack beneficial activity,–,< 500,–
"CC(C)(C)C(=O)NC(N)=O [Compound 9, 2,2-dimethylpropanoylurea]",69.4,29.8,–,–,–,148 to 149,228,–
"CC(C)(C)CC(=O)NC(N)=O [Compound 3, 1-(3,3-dimethyl-butyryl)urea]",63.9,26,80,–,–,174 to 175,143,"ED50 (rats [5]; rats, intraperitoneal): 35 mg/kg; After Discharge Duration After administration (rats [5]; individual kindled rats, 15 minutes after intraperitoneal administration, before: 93-103 (rat 1), 28-75 (rat 2)): significantly decreased and 4 sec and 14 sec; Seizure Score After administration (rats [5]; individual kindled rats, 15 minutes after intraperitoneal administration, score before administration 5): 0; ED50 Hippocampal kindling in Rats (rats [5]; rats, intraperitoneal): 35.1 mg/kg; ED50 (mice [13]): 205 mg/kg; ED50 (mice [14]): 167 mg/kg"
"CCC(C)C(=O)NC(N)=O (centres unmarked) [Compound 8, 2-methylbutanoylurea]",–,–,–,–,lack beneficial activity,178 to 180,–,–
"CC[C@@H](C)[C@@H](CC)C(=O)NC(N)=O (racemic) [Compound 4, 1-(2-ethyl-3-methyl-pentanoyl)-urea]",24,14,21,48,lack beneficial activity,–,97,"toxicity profile (animals toxic/tested) (Sprague Dawley rats; 100 mg/kg i.p., 0.25 hours): 0/2; toxicity profile (animals toxic/tested) (Sprague Dawley rats; 100 mg/kg i.p., 0.5 hours): 1/2; toxicity profile (animals toxic/tested) (Sprague Dawley rats; 100 mg/kg i.p., 1 hour): 1/2; toxicity profile (animals toxic/tested) (Sprague Dawley rats; 100 mg/kg i.p., 2 hours): 0/2; toxicity profile (animals toxic/tested) (Sprague Dawley rats; 100 mg/kg i.p., 4 hours): 0/2; toxicity profile (animals toxic/tested) (Sprague Dawley rats; 300 mg/kg i.p., 0.25 hours): 2/2; toxicity profile (animals toxic/tested) (Sprague Dawley rats; 300 mg/kg i.p., 0.5 hours): 2/2; toxicity profile (animals toxic/tested) (Sprague Dawley rats; 300 mg/kg i.p., 1 hour): 2/2; toxicity profile (animals toxic/tested) (Sprague Dawley rats; 300 mg/kg i.p., 2 hours): 2/2; toxicity profile (animals toxic/tested) (Sprague Dawley rats; 300 mg/kg i.p., 4 hours): 2/2; activity in the MES assay (mice [15]): inactive; activity in the scMet assay (mice [16]): only active at toxic doses"
